“Also recorded” adds a separate entry of the source.
Columns and labels:
Solubility by HPLC = type: physicochemical; settings: thermodynamic from solid, room temperature
Procedure: Solubility by HPLC: Solubility of Form A in selected aqueous and organic solvents was determined by mixing solid with solvents at room temperature. The samples were filtered after 24 hr of agitation and quantified by an HPLC method, except for DMSO, for which the solubility was measured after 1 hr of agitation.

[1] = Dynamic Vapor Sorption (moisture sorption); type: physicochemical
Procedure: Dynamic Vapor Sorption (DVS): Hygroscopicity was determined on a Surface Measurement Systems DVS. Typically, a sample of about 2-10 mg was loaded into the DVS instrument sample pan. The sample was analyzed on a DVS automated sorption analyzer at room temperature. The relative humidity was increased from 0 to 95% RH at 10% RH step, then at 95% RH. The relative humidity was then decreased in a similar manner to accomplish a full adsorption/desorption cycle.

[2] = Evaporation experiments, solid form by XRPD; type: physicochemical
Procedure: Equilibration/Slurry and Evaporation: Equilibration and evaporation experiments were carried out by adding an excess of Compound A hydrochloride to about 2 mL of a test solvent. The resulting mixture was agitated for at least 24 hrs at about 25° C. or about 50° C. Upon reaching equilibrium, the saturated solution was removed and allowed to evaporate slowly in an open vial under nitrogen at about 25° C. and about 50° C., respectively. The solids resulting from the equilibration were filtered and dried in the air.
(§1) X-ray Powder Diffraction (XRPD): XRPD analysis was conducted on a Thermo ARL X'TRA™ X-ray powder diffractometer using Cu Kα radiation at 1.54 Å. The instrument was equipped with a fine focus X-ray tube. The voltage and amperage of X-ray generator were set at 45 kV and 40 mA, respectively. The divergence slices were set at 4 mm and 2 mm and the measuring slices were set at 0.5 mm and 0.2 mm. Diffracted radiation was detected by a peltier-cooled Si(Li) solid-state detector. A theta-two theta continuous scan at 2.40°/min (0.5 sec/0.02° step) from 1.5°2θ to 40°2θ was used. A sintered alumina standard was used to check the peak position. In general, positions of XRPD peaks are expected to individually vary on a measurement-by-measurement basis by about +0.2°2θ. In general, as understood in the art, two XRPD patterns match one another if the characteristic peaks of the first pattern are located at approximately the same positions as the characteristic peaks of the second pattern. As understood in the art, determining whether two XRPD patterns match or whether individual peaks in two XRPD patterns match may require consideration of individual variables and parameters such as, but not limited to, preferred orientation, phase impurities, degree of crystallinity, particle size, variation in diffractometer instrument setup, variation in XRPD data collection parameters, and/or variation in XRPD data processing, among others. The determination of whether two patterns match may be performed by eye and/or by computer analysis.

[3] = Cooling recrystallization, solid form by XRPD; type: physicochemical; settings: no antisolvent
Procedure: Cooling Recrystallization: The selected solvents (THF/water, MeCN/water, MeOH/0.1N HCl, and EtOH/0.1N HCl) were saturated with Compound A hydrochloride at about 50-70° C. Once the solids were completely dissolved, the solution was rapidly cooled by placing into a refrigerator (about 0-5° C.). Solids were isolated after 1 to 3 days.
as §1

[4] = Grinding studies, solid form by XRPD; type: physicochemical
Procedure: Grinding Studies: Grinding experiments were performed using a Wig-L-Bug shaker. About 50 mg of Compound A hydrochloride was added to a polystyrene tube (1″×½″) with a Plexi bead (⅜″). The vial was capped and placed on the shaker for about 50 s. For wet grinding, drops of water were added to the vial and a wet paste was formed prior to placing on the shaker.
as §1

[5] = Humidity studies, solid form by XRPD; type: physicochemical
Procedure: as §1, with “Humidity Studies: […] The vials were placed in 40° C./75% RH humidity chamber with one vial capped and one vial open. The solids were tested by XRPD after four weeks. […] X-ray Powder” for “X-ray Powder”

[6] = Chemical stability upon storage

## Cc1nc2cccc(N)c2c(=O)n1C1CCC(=O)NC1=O.Cl (stereo not shown) [Form A1, 3-(5-amino-2-methyl-4-oxo-4H-quinazolin-3-yl)-piperidine-2,6-dione hydrochloride]
Solubility by HPLC; aqueous buffer, Acetate buffer (pH 4.0)
  solubility at 24 h: 310 µg/mL
Solubility by HPLC; aqueous buffer, Phosphate buffer (pH 6.8)
  solubility at 24 h: 30 µg/mL
Solubility by HPLC; organic solvent or mixture, Acetone
  solubility at 24 h: 2550 µg/mL
Solubility by HPLC; organic solvent or mixture, Acetonitrile (AcCN)
  solubility at 24 h: 20 µg/mL
Solubility by HPLC; organic solvent or mixture, Dimethyl Sulfoxide (DMSO), 1 hr of agitation
  solubility at 1 h: 21900 µg/mL
Solubility by HPLC; organic solvent or mixture, Ethyl acetate (EtOAc)
  solubility at 24 h: < 1 µg/mL
Solubility by HPLC; organic solvent or mixture, Heptane
  solubility at 24 h: < 1 µg/mL
Solubility by HPLC; organic solvent or mixture, Isopropanol (iPrOH)
  solubility at 24 h: 20 µg/mL
Solubility by HPLC; organic solvent or mixture, Methanol (MeOH)
  solubility at 24 h: 270 µg/mL
Solubility by HPLC; organic solvent or mixture, Tetrahydrofuran (THF)
  solubility at 24 h: < 5 µg/mL
Solubility by HPLC; organic solvent or mixture, Toluene
  solubility at 24 h: < 5 µg/mL
Solubility by HPLC; saline or isotonic, 0.9% NaCl
  solubility at 24 h: 1900 µg/mL
Solubility by HPLC; simulated gastric fluid, 0.1N HCl
  solubility at 24 h: 5340 µg/mL
Solubility by HPLC; Water
  solubility at 24 h: 1710 µg/mL
[1]; DVS 0 to 95% RH
  hygroscopicity: non-hygroscopic
[1]; after DVS cycle
  XRPD after full adsorption/desorption cycle: unchanged
[1]; relative humidity increased from 0 to 95%
  mass change relative to the dry mass: 0.15%
[2]; evaporation at 50° C., Acetonitrile/Water (1:1)
  XRPD Result after evaporation: Form A1
[2]; evaporation at 50° C., Ethanol/Water (1:1)
  XRPD Result after evaporation: Form A1
[2]; evaporation at 50° C., Methanol
  XRPD Result after evaporation: Form A1
[2]; evaporation at 50° C., Tetrahydrofuran/Water (1:1), hydrochloride
  XRPD Result after evaporation: Amorphous
[2]; evaporation at 50° C., Water
  XRPD Result after evaporation: Form A1
[2]; evaporation at room temperature, Acetonitrile/Water (1:1)
  XRPD Result after evaporation: Form A1
[2]; evaporation at room temperature, Ethanol/Water (1:1)
  XRPD Result after evaporation: Form A1
[2]; evaporation at room temperature, Methanol, hydrochloride
  XRPD Result after evaporation: Partial or complete salt dissociation; also recorded: Form A + Form A1
[2]; evaporation at room temperature, THF
  XRPD Result after evaporation: Partial or complete salt dissociation
[2]; evaporation at room temperature, Tetrahydrofuran/Water (1:1), hydrochloride
  XRPD Result after evaporation: Partial or complete salt dissociation; also recorded: Form A + Form A1
[2]; evaporation at room temperature, Water
  XRPD Result after evaporation: Form A1
[3]; EtOH/0.1N HCl
  XRPD Result after recrystallization: Form A1
[3]; MeCN/H2O, hydrochloride
  XRPD Result after recrystallization: Form A1 + Form A
[3]; MeOH/0.1N HCl
  XRPD Result after recrystallization: Form A1
[3]; THF/H2O, hydrochloride
  XRPD Result after recrystallization: Complete salt dissociation; also recorded: Form A
[4]; Dry grinding
  XRPD Result after grinding: unchanged
[4]; Wet grinding (paste)
  XRPD Result after grinding: unchanged
[5]; 40° C./75% RH environment for four weeks
  Solid form after humidity exposure: not changed
[5]; 40° C./75% RH for 4 weeks, closed vial
  XRPD Result after humidity exposure: Form A1
[5]; 40° C./75% RH for 4 weeks, open vial
  XRPD Result after humidity exposure: Form A1
[5]; 95% RH at room temperature for 4 days, hydrochloride
  XRPD Result after humidity exposure: not changed; also recorded: Form A1
[6]; 40° C. and 75% relative humidity (RH)
  chemical stability upon storage: chemically stable
[6]; 40° C. under a nitrogen atmosphere
  chemical stability upon storage: chemically stable
[6]; 40° C. under vacuum
  chemical stability upon storage: chemically stable
[6]; 60° C. in a closed container
  chemical stability upon storage: chemically stable
[6]; room temperature, exposed to air and light, for 6 weeks
  chemical stability upon storage: chemically stable
